Values quoted from earlier work as cited in US7786119B2, “Drug conjugates of ion channel modulating compounds” (Cardiome Pharma Corp., priority 2004, dated 2010).

Assays:
[1] = optically pure d-sotalol; SWORD study

Structure (SMILES) | increased mortality compared to placebo [1] | risk of ventricular proarrhythmia (estimated) | patients requiring cardioversion for refractory ventricular arrhythmias (in vivo)
CC(C)NC[C@@H](O)c1ccc(NS(C)(=O)=O)cc1 [d-sotalol] | 65% |  | 
CCCCCCCN(CC)CCCC(O)c1ccc(NS(C)(=O)=O)cc1 (stereo not drawn) [ibutilide] |  | ~4.4% | ~1.7%
